Measurements published in US4410527A, “Substituted thienobenzodiazepinones and salts thereof” (Dr. Karl Thomae Gesellschaft mit beschrankter Haftung, priority 1982, dated 1983).

Experiments:
[1] = target: T1, muscarinic receptors (heart) (Rattus norvegicus, UniProt P10980); assay: Binding to muscarinic receptors, 3H-N-methylscopolamine displacement, whole heart; parameters: species or system rat (male Sprague-Dawley); conditions: rat whole heart homogenate 1:250, 0.3 n molar 3H-NMS, pH 7.4, 30° C., 45 minutes; read-out: Receptor binding tests IC50 Heart
T1 construct: All the organs were then homogenized in a Potter apparatus; from tissue; host or cells: whole heart of male Sprague-Dawley rats, homogenate diluted 1:250
T1 sequence (P10980 1-466): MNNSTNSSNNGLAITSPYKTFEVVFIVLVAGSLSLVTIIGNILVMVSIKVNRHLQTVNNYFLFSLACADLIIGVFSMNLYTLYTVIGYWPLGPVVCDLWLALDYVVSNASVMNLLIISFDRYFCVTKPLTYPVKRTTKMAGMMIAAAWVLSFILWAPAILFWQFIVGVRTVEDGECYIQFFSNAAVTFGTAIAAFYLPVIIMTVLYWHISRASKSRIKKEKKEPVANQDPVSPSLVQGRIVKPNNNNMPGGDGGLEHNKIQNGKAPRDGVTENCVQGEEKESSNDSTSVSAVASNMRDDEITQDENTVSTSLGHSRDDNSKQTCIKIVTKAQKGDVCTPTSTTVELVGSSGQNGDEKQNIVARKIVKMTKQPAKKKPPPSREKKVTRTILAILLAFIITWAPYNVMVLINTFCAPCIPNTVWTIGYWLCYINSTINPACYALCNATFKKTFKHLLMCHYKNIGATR
Description: (§1) 2. Studies of Binding to Muscarinic Receptors: Determination of the IC50 value
(§2) The organ donors were male Sprague-Dawley rats with a body weight of from 180 to 220 gm. After the heart, stomach and cerebral cortex had been removed, the remainder of the operation was carried out in ice-cold Hepes-HCl buffer (pH 7.4; 100 m molar NaCl, 10 m molar MgCl2). The smooth muscle of the fundus of the stomach was separated from the mucous membrane of the stomach and subjected to preliminary homogenization. The whole heart was cut up with scissors. All the organs were then homogenized in a Potter apparatus.
(§3) For the binding test, the homogenized organs were diluted as follows:
(§4) The homogenized organ preparations were incubated at a specific concentration of the radioligand and with a series of concentrations of the non-radioactive test substances in an Eppendorf centrifuge tube at 30° C. The duration of incubation was 45 minutes. 0.3 n molar ^3 H-N-methylscopolamine (^3 H-NMS) was used as the radioligand. After incubation had been brought to an end by centrifuging at 14,000 g, the radioactivity in the pellet was determined. It represents the sum of the specific and non-specific binding of ^3 H-NMS. The proportion of non-specific binding was defined as the radioactivity which was bound in the presence of 1μ molar quinuclidinyl benzylate. Four measurements were taken in each case. The IC50 values of the nonlabelled test substances were determined graphically. They represent the concentration of test substance at which the specific binding of ^3 H-NMS to the muscarinic receptors in the various organs was inhibited by 50%.

[2] = test system: oxotremorine-induced secretion of saliva (muscarinic receptors); assay: Oxotremorine test: inhibition of oxotremorine-induced secretion of saliva; format: in vivo, rat (female albino, Crl:COBS-CD (SD) BR); conditions: iv, 0.25 h; i.v., rat, 15 minutes before 0.083 mg/kg i.v. oxotremorine; read-out: Oxotremorine test Inhibition of salivation ED50
From the text: (§5) Investigation of the Selectivity of the Antimuscarinic Activity
(§6) Oxotremorine, a specific agonist for muscarinic receptors, produces lesions in the mucous membrane of the stomach in rats and increases their secretion of saliva. This test method was chosen so that any selective activity of an antimuscarinic substance on the stomach could be identified.
(§7) Ten female albino rats (of the Crl:COBS-CD (SD) BR strain) with a body weight of from 120 to 150 gm were used in each treatment group and were kept without food for 24 hours before the start of the test, but given free access to drinking water.
(§8) In order to determine, in preliminary tests, the muscarinic effect of oxotremorine on each of the symptoms studied, a dosage/activity curve was drawn up with at least three dosages for each symptom.
(§9) When testing the antimuscarinic substances, the dosage of oxotremorine which triggered the symptom in question in 90 to 100% of the animals in the preliminary tests was used.
Secretion of saliva: 0.083 mg/kg i.v.
Each antimuscarinic substance was administered intravenously in uniformly graduated doses 15 minutes before the oxotremorine was administered. Control groups were given corresponding quantities of the solvent and suspending agent instead of the test substance. […]
(§10) The ED50 values were determined using the method described by LITCHFIELD and WILCOXON [J. Pharmacol. Exp.Ther. 96, 99, (1949)].

[3] = test system: oxotremorine-induced lesions in mucous membrane of stomach (muscarinic receptors); assay: Oxotremorine test: protection against oxotremorine-induced lesions of the gastric mucous membrane (anti-ulcerogenic effect); format: in vivo, rat (female albino, Crl:COBS-CD (SD) BR); conditions: iv, rat, 0.62 mg/kg i.v. oxotremorine, 1 mg/kg oral neostigmine; for ED50: ED50, i.v.; for ED70: ED70, i.v.
From the text: as §5, §6, §7, §8, §9
Lesion in mucous membrane of stomach: 0.62 mg/kg i.v.
Each antimuscarinic substance was administered intravenously in uniformly graduated doses 15 minutes before the oxotremorine was administered. Control groups were given corresponding quantities of the solvent and suspending agent instead of the test substance.
as §10
The effects on lesions of the mucous membrane of the stomach were evaluated as follows:
The lesions of the gastric mucous membrane were produced by intravenous injection of 0.62 mg/kg of oxotremorin 30 minutes after the oral administration of 1 mg/kg of neostigmine (a cholinesterase inhibitor). 60 minutes after the administration of the neostigmine, the animals were killed, the stomachs were removed, opened and examined for the presence of any lesions in the mucous membrane. The protective effect of the test substances was expressed as the percentage inhibition (percentage of animals without lesions). The ED50 and ED70 values were determined using the method of LITCHFIELD and WILCOXON (supra).

[4] = Mydriasis: effect on pupil size in rats; conditions: in vivo, iv, rat, pupil size observed for 10 minutes
Description: The effect of the test substances on the pupil size in rats was investigated as follows:
The substances were administered intravenously to groups of 10 animals in at least three uniformly graduated doses. […] The percentage of test animals in which mydriasis occurred was determined. The ED50 values were again determined using the method of LITCHFIELD and WILCOXON (supra).

[5] = target: muscarinic receptors (cerebral cortex); assay: Binding to muscarinic receptors, 3H-N-methylscopolamine displacement, cerebral cortex; parameters: species or system rat (male Sprague-Dawley); conditions: rat cerebral cortex homogenate 1:3000, 0.3 n molar 3H-NMS, pH 7.4, 30° C., 45 minutes; read-out: Receptor binding tests IC50 Cortex
Description: as §1, §2, §3, §4

[6] = target: muscarinic receptors (smooth muscle of the fundus of the stomach); assay: Binding to muscarinic receptors, 3H-N-methylscopolamine displacement, smooth muscle of fundus of stomach; parameters: species or system rat (male Sprague-Dawley); conditions: rat stomach fundus smooth muscle homogenate 1:100, 0.3 n molar 3H-NMS, pH 7.4, 30° C., 45 minutes; read-out: Receptor binding tests IC50 Smooth muscle fundus of stomach
Description: as §1, §2, §3
Smooth muscle of the fundus of the stomach--1: 100
as §4

## CN1CCC(OC(=O)N2c3ccccc3NC(=O)c3cscc32)CC1 [A, 4,9-Dihydro-4-{[(1-methyl-4-piperidinyl)oxy]carbonyl}-10H-thieno[3,4-b][1,5]benzodiazepin-10-one]
[1]
  IC50: 180 nM
[2]
  ED50: 0.1 mg/kg
[3]
  ED50: 0.017 mg/kg
  ED70: 0.025 mg/kg
[4]
  ED50 at 10 min: 0.11 mg/kg
[5]
  IC50: 40 nM
[6]
  IC50: 200 nM

## CN1CCC(NC(=O)N2c3ccccc3NC(=O)c3cscc32)CC1 [B, 4,9-Dihydro-4-{[(1-methyl-4-piperidinyl)amino]carbonyl}-10H-thieno[3,4-b][1,5]benzodiazepin-10-one]
[1]
  IC50: 220 nM
[2]
  ED50: 0.04 mg/kg
[3]
  ED50: 0.017 mg/kg
  ED70: 0.044 mg/kg
[4]
  ED50 at 10 min: 0.037 mg/kg
[5]
  IC50: 30 nM
[6]
  IC50: 300 nM

## CN1CCN(NC(=O)N2c3ccccc3NC(=O)c3cscc32)CC1 [C, 4,9-Dihydro-4-{[(4-methyl-1-piperazinyl)amino]carbonyl}-10H-thieno[3,4-b][1,5]benzodiazepin-10-one]
[1]
  IC50: 90 nM
[3]
  ED70: 0.019 mg/kg
[4]
  ED50 at 10 min: 0.03 mg/kg
[5]
  IC50: 20 nM
[6]
  IC50: 200 nM
